Measured values: patent EP0551200A1, “Protein phosphatase inhibitors for use in therapy” (priority 1992, dated 1993)

How the values were obtained:
Format in all cases: cell-based, human
[1] = test system: c-abl; experiment: Phosphorylation of cdc2 kinase substrate c-abl, immunoprecipitation; details: 50 units/ml TNF or 100 nM OA
Protocol: Where c-abl (top panel) or p53 (bottom panel) phosphorylation was measured, cells were treated for the times indicated with 50 units/ml TNF or 100 nM OA. Where RB (middle panel) phosphorylation was measured, cells were treated for 15 min with the indicated doses of TNF (in units/ml) or OA (in nM). Cell lysates were immunoprecipitated with antibodies to either c-abl, RB, or p53 (from Oncogene Science). The immunoprecipitated proteins were subjected to 6 or 10% SDS-PAGE and autoradiography. Note that in the middle panel, the lesser extent of RB phosphorylation observed with 500 nM OA as compared to 100 nM OA is due to the loading of about four times less amount of protein in the 500 nM OA than the 100 nM OA-treated sample to the gel. At either concentration of OA, the ratio of the hyperphosphorylated form of RB is higher than the hypophosphorylated form of RB.
Phosphorylation of cdc2 Kinase Substrates in Cells Treated with IL-1, TNF, or Okadaic Acid - It is noted from Fig. 1 (e and f) that the phosphorylation of myosin light chain and nucleolin are enhanced by TNF and okadaic acid treatment. Both proteins are known to be substrates of cdc2 kinase. In this connection, a question was raised as to whether other cdc2 kinase substrates which are known to be phosphorylated by okadaic acid treatment are also effected in TNF-treated human fibroblasts. […]

[2] = test system: 27 hsp complex; experiment: Phosphorylation of the 27 hsp complex in the cytosolic fraction of 32P-labeled fibroblasts
Protocol: Human fibroblasts prelabeled with [³²P]orthophosphate (1 mCi/ml) were incubated with increasing concentrations of OA or TNF. Cytosolic fractions were prepared from the cells and subjected to two-dimensional gel electrophoresis. a, control; b, 80 nM OA; c, 160 nM OA; d, 50 units/ml TNF; and e, 320 nM OA.
The fibroblasts were treated with 200 nM of okadaic acid for 0 min (a), 5 min (b), 15 min (c), or 30 min (d). Cytosolic fractions were prepared from the fibroblasts and analyzed by two-dimensional gel electrophoresis.
Radiolabeling of Cells and Cell Lysis - For labeling with [³²P]orthophosphate cells were plated onto 90 mm plastic tissue culture dishes and incubated for 3 days for the cells to become confluent. […]
Two-dimensional Gel Electrophoresis - The lyophilized fractions (each of approximately 12 µg) were subjected to isoelectric focusing for 18,000 V/h with pH 3-10 ampholytes using the Millipore Investigator two-dimensional electrophoresis system (Millipore). […] Molecular weight marker proteins from Sigma were detected by Coomassie Blue staining and marked on the autoradiogram. ³²P-Labeled 27 hsp complex prepared from human fibroblasts heat shocked at 43°C for 30 min was also used as a marker. […]

[3] = test system: EGFR; experiment: Phosphorylation of EGF receptor, immunoprecipitation from 32P-labeled fibroblasts; details: 250 nM, 15 min
Protocol: Phosphorylation of EGFR by TNF, IL-1, EGF, PDGF (indicated as PGF) and okadaic acid (OA). ³²P-Labeled cultures of fibroblast cells were treated with TNF (100 units/ml), IL-1 (100 units/ml), EGF (50 ng/ml), PDGF (32 ng/ml) or OA (250 nM) for 15 min. Control is indicated by 0. The EGFR was immunoprecipitated with anti-EGFR antibody (Oncogene Science, Manhasset, N.Y., US). The proteins were subjected to 7.5% SDS-PAGE and autoradiography.
IL-1, TNF, or Okadaic Acid Treatment Stimulate Phosphorylation of the EGF Receptor - One feature of TNF and IL-1 action is the transmodulation of the EGFR via phosphorylation. Okadaic acid was added to human fibroblasts to see if it can also mimic this effect of TNF and IL-1. ³²P-Labeled human fibroblasts were treated with ligand (TNF, IL-1, EGF, PDGF, or okadaic acid) for 15 min and extracted for analysis. The extracts were immunoprecipitated with anti-EGFR antibodies. The immunoprecipitated EGFR derived from variously treated fibroblasts was analyzed by SDS-PAGE and autoradiography.

C=C1[C@@H](O)[C@@H]2O[C@]3(CC[C@H](/C=C/[C@@H](C)[C@@H]4CC(C)=C[C@@]5(O[C@H](C[C@@](C)(O)C(=O)O)CC[C@H]5O)O4)O3)CC[C@H]2O[C@@H]1[C@@H](O)C[C@H](C)[C@H]1O[C@@]2(CCCCO2)CC[C@H]1C [okadaic acid]
phosphorylation of c-abl (in words) [1]: enhanced the phosphorylation
phosphorylation state of the 27 hsp complex (in words) ([2]; 200 nM, after 30 min): hyperphosphorylated
concentration producing about the same increase in phosphorylation of the 27 hsp complex as 50 units/ml of TNF ([2]; 15 min): 160 to 320 nM
stimulation of phosphorylation of the EGFR (in words) [3]: to an even greater extent than does TNF, IL-1, EGF or PDGF
